Values quoted from earlier work in article PMC11600176 (JACS Au, 2024).

Settings: aerated acetonitrile

- Φf fluorescence quantum yield of the standard: 0.48
Structure (SMILES): CCCN1C(=O)c2cccc3c(N)ccc(c23)C1=O [N-propyl-4-amino-1,8-naphthalimide]
